Consider one compound from article PMC10439952, “JT002, a small molecule inhibitor of the NLRP3 inflammasome for the treatment of autoinflammatory disorders” (Scientific Reports, 2023).

The target in this test is NLRP3 inflammasome (Homo sapiens, UniProt Q96P20). Nature of the test: Inhibition of IL-1β production in human PBMCs stimulated by LPS + nigericin. Format: cell-based. On the set-up: host or cells: human PBMCs; fresh heparinised human whole blood from healthy volunteers. The following applies: Human PBMC, read-out: Geo Av IC50, IL-1β. The protocol:
Inflammasome activation and whole blood assays were essentially carried out as described earlier. Details can be found in the supplementary information section accompanying this publication. A protocol for blood draws from healthy volunteers and use of the blood in preclinical assays was approved by Western Institutional Review Board, Inc (Puyallup, WA, USA). Informed consent was obtained from each donor prior to the first blood draw.
Cell viability was determined by addition of an equal volume of CellTiter-Glo® 2.0 reagent (Promega) to the remaining cells/supernatant in each well. Intracellular Caspase-1 activity was measured using the Caspase-Glo® assay (Promega) according to the manufacturer’s instructions. The biochemical capsase-1 assay was conducted at Reaction Biology Corporation (Malvern, USA). Human IL-1β, IL-1α, and TNFα and mouse IL-1β were measured in cell culture supernatants using homogeneous time resolved fluorescence assay kits (HTRF, Cisbio, Codolet, France). Human IL-18 was measured in cell culture supernatants using an ELISA kit (R&D Systems, Minneapolis, MN, USA). Plasma IL-1β concentrations were determined by Quantikine® ELISA (R&D Systems, Minneapolis, MN).
4H). MS: m/z 433.1 (M+H+). […]

Sequence of NLRP3 inflammasome (Q96P20 whole entry): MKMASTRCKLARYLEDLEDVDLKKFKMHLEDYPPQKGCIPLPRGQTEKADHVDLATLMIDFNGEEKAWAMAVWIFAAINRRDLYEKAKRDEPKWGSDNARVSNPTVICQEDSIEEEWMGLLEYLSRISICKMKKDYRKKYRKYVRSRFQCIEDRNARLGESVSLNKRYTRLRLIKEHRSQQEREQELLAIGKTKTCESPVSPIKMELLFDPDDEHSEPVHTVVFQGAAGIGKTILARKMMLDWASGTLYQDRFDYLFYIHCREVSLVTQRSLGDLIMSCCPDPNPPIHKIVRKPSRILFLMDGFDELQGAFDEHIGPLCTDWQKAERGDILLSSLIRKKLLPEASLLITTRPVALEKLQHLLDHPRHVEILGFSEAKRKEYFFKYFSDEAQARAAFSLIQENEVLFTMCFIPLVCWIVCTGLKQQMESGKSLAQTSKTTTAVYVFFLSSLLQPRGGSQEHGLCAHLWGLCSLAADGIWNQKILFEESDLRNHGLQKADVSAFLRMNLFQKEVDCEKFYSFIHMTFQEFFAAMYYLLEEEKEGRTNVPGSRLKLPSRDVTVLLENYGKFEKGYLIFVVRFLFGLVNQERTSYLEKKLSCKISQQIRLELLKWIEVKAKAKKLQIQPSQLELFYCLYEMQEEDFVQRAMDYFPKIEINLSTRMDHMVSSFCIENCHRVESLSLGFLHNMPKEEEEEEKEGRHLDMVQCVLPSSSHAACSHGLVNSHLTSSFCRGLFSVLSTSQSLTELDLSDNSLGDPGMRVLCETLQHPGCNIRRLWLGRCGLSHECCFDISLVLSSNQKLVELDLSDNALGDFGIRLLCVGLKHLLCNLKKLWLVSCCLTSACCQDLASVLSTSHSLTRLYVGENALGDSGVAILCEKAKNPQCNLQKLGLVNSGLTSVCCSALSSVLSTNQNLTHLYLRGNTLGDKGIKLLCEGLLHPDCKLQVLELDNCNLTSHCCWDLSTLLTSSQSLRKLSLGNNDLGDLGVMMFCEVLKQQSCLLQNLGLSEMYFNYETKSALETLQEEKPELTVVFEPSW

As for `CO[C@@H]1COc2c(S(=O)(=O)NC(=O)Nc3c4c(cc5c3CCC5)CCC4)cnn2C1` [JT002], the concentration for half-maximal inhibition (IC50) was determined as 6 nM.
